Measured values from patent publication US20150150765A1, “VOLATILE OIL FOR COSMETICS” (NOF Corporation, priority 2012, published 2015).

How the values were obtained:
[1] = order of volatility, sample spread on filter paper and dried; type: physicochemical; conditions: 0.1 g on filter paper of 110 mm diameter; rank by speed to be completely dry (1 = fastest)
Description: It is noted that for the order of volatility in Table 1, 0.1 g of each sample was spread on a filter paper of 110 mm in diameter, and the weight was measured after drying for two hours. Ranking was based on the order of the speed that it took the samples to be completely dry and 0 g in weight.

[2] = evaluation of smoothness of hair (MIU friction resistance of hair surface); set-up: species or system human; conditions: coefficient of friction of bleached hair, hair untreated with oil = 100%; below 100% = improvement; 20° C., 40% humidity
Description: (§1) [Evaluation of Smoothness]
With the volatile oil for hair cosmetics of the present invention, coefficients of friction were measured by the method shown below, and the improvement of smoothness, when applied to hair, was evaluated.
Method of Evaluating Smoothness (Improvement after Treating Bleached Hair with Each Sample)
(Evaluation) MIU (Resistance: μ): Friction resistance of hair surface (Measuring Equipment) Friction tester (from Kato Tech Co., Ltd.) (Measuring Conditions) Measurement environment at 20° C.; 40% of Humidity; Constant temperature and humidity chamber; Number of hair for measurement: ten; Contactor: Silicon rubber; Load: 25 gf (Hair Employed) Bleached healthy human hair that was purchased
(§2) (Applying Various Oils and Preparing Tests)
(§3) (1) One hair is picked out of the bundle of human hair. Each sample is dropped onto an index finger cushion from a syringe, and is blended with a thumb.
(§4) (2) The picked hair is pinched between the index finger and the thumb, and is coated with a sample from its root to the end.
(3) After the sample is coated, excess sample is wiped off with a waste cloth made of paper (Trade Name: Kim Wipes). […]
(Assessment) With the coefficient of friction of hair untreated with oil as 100%, smoothness is evaluated after being treated with each sample. […]

hair tensile strength = conditions: breaking load of healthy human hair, untreated with oil (blank) = 100%; above 100% = improvement; 25° C.
Description: (Measuring Equipment) FUDOH RHEO METER RTC from Rheotech Co., Ltd. (Measuring Condition) Measurement environment: Inside constant temperature chamber at 25° C.
(Hair Employed) Healthy Human Hair
as §2
Beforehand, a bundle of unbleached healthy hair for measurement is placed in a constant temperature chamber for one day.
as §3, §4
(3) After the sample is coated, excess oil is wiped off with a waste cloth made of paper (Trade Name: Kim Wipes).
(4) After ten human hairs are treated with each sample, hair diameter is measured with a diameter.
(5) The hair is fixed with a jag of an equipment, and is given a load by lowering a base onto which the hair is fixed.
(6) The load is recorded when the hair is broken by the load.
(Assessment) With the tensile strength of hair untreated with oil (blank) as 100%, tensile strength was evaluated after being treated with each sample. If there is an improvement in comparison with the blank, the number would be higher than 100%.

[3] = evaluation of smoothness of skin (MIU friction resistance of skin surface); type: in vivo; conditions: coefficient of friction of skin, inside upper arm, before oil treatment = 100%; below 100% = improvement
Description: as §1
With the volatile oil for external preparations for skin of the present invention, coefficients of friction were measured by the following method, and the improvement of smoothness when applied to skin was evaluated.
Method of Evaluating Smoothness (Improvement after Treating Skin with Each Sample)
(Evaluation) MIU (Resistance: μ): Friction resistance of skin surface (Measuring Equipment) Friction tester (from Kato Tech Co., Ltd.) (Measuring Conditions) Measurement environment at 20° C.; 40% of Humidity; Constant temperature and humidity chamber; Measurement site: Inside upper arm; Contactor: Silicon rubber; Load: 25 gf
as §2
(§5) (1) The measurement site of a subject is washed with neutral detergent and tap water and then dried. The subject goes in the constant temperature and humidity chamber 30 min. before measurement to allow the measurement site to get used to the environment inside the chamber.
(2) Coefficients of friction at sites to be applied are measured before applying samples. […]
(4) After the samples are applied, the coefficients of friction at applied sites are measured every thirty minutes.
(Assessment) With the coefficient of friction at measurement sites before oil treatment as 100%, smoothness was evaluated after being treated with each sample. […]

[4] = evaluation of moisture retention (amount of moisture in stratum corneum, SKICON-200EX); type: in vivo; conditions: inside human forearm, two hours after applying 10 μL; blank = 100%; above 100% = improvement
Description: [Evaluation of Moisture Retention]
With the volatile oil for external preparations for skin of the present invention, the amount of moisture in a stratum corneum was measured by the method shown below, and the amount of moisture (moisture retention) was evaluated.
(Measuring Equipment) SKICON-200EX (from I.B.S. Co., Ltd.)
(§6) (Measuring Conditions) Temperature of 20° C., Humidity of 40%
(Testing Method) Samples are applied inside a human forearm, and the amount of moisture is measured after two hours.
as §2, §5
(2) Before applying samples, the amount of moisture is measured at a site to be applied that is marked in a circle 1 cm in diameter.
(3) Samples are dropped by 10 μL with a micropipette onto a measurement site that is marked in a circle with 1 cm in diameter, and are applied to skin at the marking site.
(4) The amount of moisture is measured at the measurement site two hours after being applied.
(Assessment) With the amount of water at measurement sites with no oil treatment (blanks) as 100%, the amount of moisture was evaluated after being treated with each sample. […]

[5] = evaluation of barrier property (evaporated water quantity, Tewameter); type: in vivo; conditions: inside human forearm, two hours after applying 10 μL; blank = 100%; below 100% = improvement
Description: [Evaluation of Barrier Property]
With the volatile oil for external preparations for skin of the present invention, an evaporated water quantity in a stratum corneum was measured by the method shown below, and the evaporated water quantity (barrier property) was evaluated.
(Measuring Equipment) Tewameter™210 (from Courage+Kahazaka Co., Ltd.)
as §6
(Testing Method) Samples are applied inside a human forearm, and an evaporated water quantity is measured after two hours.
as §2, §5
(2) Before applying samples, an evaporated water quantity is measured at a site to be applied that is marked in a circle 1 cm in diameter. […]
(4) The evaporated water quantity is measured at the measurement site two hours after being applied.
(Assessment) With the evaporated water quantity at measurement sites with no oil treatment (blanks) as 100%, the evaporated water quantity was evaluated after being treated with each sample. […]

[6] = evaluation of skin viscoelasticity (Cutometer); type: in vivo; conditions: inside human forearm, two hours after applying 10 μL; blank = 100%; above 100% = improvement
Description: [Evaluation of Skin Viscoelasticity]
With the volatile oil for external preparations for skin of the present invention, skin viscoelasticity was measured by the method shown below, and the skin viscoelasticity was evaluated.
(Measuring Equipment) Cutometer (from I.B.S. Co., Ltd.)
as §6
(Testing Method) Samples are applied inside a human forearm, and viscoelasticity is measured after two hours.
as §2, §5
(2) Before applying samples, viscoelasticity is measured at a site to be applied that is marked in a circle with 1 cm in diameter.
(3) Samples are dropped by 10 μL with a micropipette onto a measurement site that is marked in a circle with 1 cm in diameter, and are applied, to skin at the marking site.
(4) The viscoelasticity is measured at the measurement site two hours after being applied.
(Assessment) With the […] at measurement sites with no oil treatment (blanks) as 100%, skin viscoelasticity was evaluated after being treated with each sample. […]

Structure (SMILES)	order of volatility [1]	smoothness (%) [2] [%]	tensile strength (%) (hair tensile strength)	smoothness (%) [3] [%]	water quantity in stratum corneum (%) [4] [%]	evaporated water quantity (%) [5] [%]	skin viscoelasticity (%) [6] [%]
C[Si]1(C)O[Si](C)(C)O[Si](C)(C)O[Si](C)(C)O[Si](C)(C)O1 [compound 1]	3	83	120	108	120	106	95
CC(CC(C)(C)C)CC(C)(C)C [compound 2, 2,2,4,6,6-pentamethylheptane]	1	78	125	104	112	105	97
